Laboratory results reported in patent publication US20260097047A1, “Small molecule inhibitors of the ribosome biogenesis factor NVL2” (Board of Regents, The University of Texas System, priority 2023, published 2026).
One block for each compound: values may come before it.

Legend:
p53 and p21 = p53 and p21 protein levels in HCT116 cells; assay type: cell-based, human
Source text: (§1) Inhibition of 60S ribosome biogenesis is known to induce the stability and upregulation of p53, which could serve as a potential pharmacodynamics marker for MM017 in HCT116 cells. […] We used PRISM (Broad Institute) to evaluate the selectivity of MM017 across 902 cancer cell lines and then correlated this selectivity to 1,215 clinical and pre-clinical compounds in the PRISM database. […] These observations indicate that oxaliplatin and carmofur, like MM017, target ribosome biogenesis.

[1] = system: serine 15 phosphorylated p53; experiment: p53 serine 15 phosphorylation (DNA damage response marker); conditions: MM017 up to 10 μM
Source text: A biochemical marker for activation of the DNA damage response is phosphorylation of serine 15 of p53, which results in increased p53 protein (41). Thus, we compared the impact of MM017, oxaliplatin, and CX-5461 on both p53 upregulation and p53 serine 15 phosphorylation.

cleaved caspase-3 = experiment: Cleaved caspase-3 (apoptosis), HCT116 control and p53 KO cells; assay type: cell-based, human
Source text: The upregulation of p53 and its effector p21 can arrest cell growth or induce cell death through apoptosis. […] Next, we addressed whether cell death was mediated by an apoptotic pathway by assaying for cleaved caspase-3, a bona fide marker of apoptosis.

HCT116 cells = experiment: Cell viability assay (CellTiter-Glo, 72 hours) in HCT116 human colorectal cancer cells; assay type: cell-based; conditions: Homo sapiens, HCT-116; read-out: IC50, proliferation of HCT116 cells
In short: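 2,000 cells/well adhered overnight, then compound added by digital dispenser with DMSO normalized to 0.5%. Viability read after 72 h at 37 °C by ATP-based CellTiter-Glo luminescence. IC50 from ten-point curves baseline-corrected to vehicle, five-parameter asymmetric least-squares fit.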

HCT116 NVL^P307T cells = experiment: Cell viability in compound-resistant HCT116 NVL^P307T cells; assay type: cell-based, human
Source text: Assessing the ability of NVL2 inhibitors to selectively kill WT versus NVL2^mut HCT116, block ribosome biogenesis and induce p53. We evaluate analogs in the colorectal cancer cell line HCT116 and already available compound-resistant clones. One clone has a mutation in the compound binding site (NVL2^R403W) and another clone (NVL2^P307T) has a mutation distant from the binding site that confers resistance through an unknown effect. Based on our results, analogs that kill HCT116 cells via NVL2 inhibition (on-target) have reduced potency in compound-resistant HCT116 mutant clones. Our analogs have been counter-screened against the NVL2 compound-resistant mutant clones with fold resistance range between 10-100 fold (most analogs 20-50 fold). This counter screen provides a strategy for identifying off-target toxins.
From whole exome sequencing, we identified variants that were acquired during IAA-induced mutagenesis with the hypothesis that genes related to resistance will be mutated in multiple clones. Two genes contained acquired variants in at least 3 of the 15 selected clones: TERT, mutated in 3 of 15 clones, and NVL, mutated in all 15 clones. […] In sum, 57 out of 59 unique clones harbored NVL mutations. The majority of mutations clustered within the D1 AAA+ ATPase domain and frequently affecting the same codons. To test whether these mutations are sufficient for MM017 resistance, we used CRISPR-Cas9 to knock-in two of the most resistant mutations (NVL^P307T, NVL^R403W) and a mutation with intermediate resistance (NVL^H304R). Transfection of cells with sgRNAs targeting these NVL residues in addition to a mutation-encoding repair template yielded an increased rate of resistance when compared to mock treatments.
(§2) HCT116 cells were transfected with TransIT-LT (Mirus #MIR2304) according to manufacturer's protocol with a guide RNA (either mock or NVL targeting) in the px330 vector (Addgene, #42230), and 10 nM single stranded deoxyoligonucleotide encoding a specific NVL mutation (see below for specific sequences). 72 hours after transfection, cells were selected by MM017 treatment. The resulting cells were evaluated by cresyl violet staining or collected and the relevant NVL mutations were analyzed by either amplicon or sanger sequencing.
Cell viability assay: In 96-well assay plates (Corning #2903), 2,000 cells were plated per well in 100 μL of medium and allowed to adhere overnight. The next day, compounds suspended in DMSO were dispensed to the assayed wells using a D300e Digital Dispenser (Tecan). All wells were normalized to 0.5% DMSO. 72 hours after incubation at 37° C. in 5% CO2, cell viability was assayed using an ATP-based luminescent viability assay, CellTiter-Glo (Promega #G8462). Substrate was mixed 1:1 with phosphate-buffered saline (PBS) supplemented with 1% Triton X-100, and 40 μL of this mixture was added to the assay wells. Plates were shaken on a microplate shaker for 10 minutes at room temperature. Luminescence (CellTiter-Glo) was recorded using a Synergy 2 microplate reader (BioTek). In Prism 9 software (GraphPad), ten-point dose response curves were plotted with baseline-correction to the vehicle control well, and IC50 values were calculated by curve fitting using asymmetric (five parameter), least squares fit.

NVL = target: T1, NVL (Homo sapiens, UniProt O15381); experiment: Photo-crosslinking, affinity purification and probe displacement of NVL in cells; assay type: binding; set-up: endogenous in cells; conditions: UV light
T1 sequence (O15381 1-856): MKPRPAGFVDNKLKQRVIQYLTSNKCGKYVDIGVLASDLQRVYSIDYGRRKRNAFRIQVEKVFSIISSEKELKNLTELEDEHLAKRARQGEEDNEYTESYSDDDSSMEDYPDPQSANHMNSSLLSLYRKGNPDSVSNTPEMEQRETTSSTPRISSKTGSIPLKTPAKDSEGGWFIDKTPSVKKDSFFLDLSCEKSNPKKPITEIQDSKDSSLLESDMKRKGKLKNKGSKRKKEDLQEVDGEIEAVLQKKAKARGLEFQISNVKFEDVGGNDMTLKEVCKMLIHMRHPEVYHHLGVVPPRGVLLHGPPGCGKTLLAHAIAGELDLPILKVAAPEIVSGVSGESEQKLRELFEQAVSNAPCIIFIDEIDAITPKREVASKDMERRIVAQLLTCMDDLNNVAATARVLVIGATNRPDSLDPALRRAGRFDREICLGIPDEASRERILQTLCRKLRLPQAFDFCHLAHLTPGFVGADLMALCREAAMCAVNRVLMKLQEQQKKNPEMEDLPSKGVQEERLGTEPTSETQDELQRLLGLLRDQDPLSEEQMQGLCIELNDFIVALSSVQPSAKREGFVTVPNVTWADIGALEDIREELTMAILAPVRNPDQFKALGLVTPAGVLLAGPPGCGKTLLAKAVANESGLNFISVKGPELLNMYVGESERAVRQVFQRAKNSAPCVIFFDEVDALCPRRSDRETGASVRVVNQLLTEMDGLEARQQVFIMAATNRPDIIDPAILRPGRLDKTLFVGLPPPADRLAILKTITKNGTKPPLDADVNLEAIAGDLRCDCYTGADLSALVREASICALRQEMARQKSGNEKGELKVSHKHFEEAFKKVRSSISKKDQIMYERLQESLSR
Source text: To test whether NVL2 mutations prevent compound binding, we synthesized MM0514, a crosslinker derivative of MM017. MM0514 contains an aryl azide, and thus is capable of covalently modifying target proteins following exposure to UV light. MM0514 also contains an alkyne group providing a “handle” to purify bound proteins using click chemistry. Critically, MM0514 retains on-target activity to HCT116 cells since NVL2^R403W mutant cells are resistant. We crosslinked either parental or NVL2^R403W HCT116 cells to MM0514 and analyzed NVL2 binding. […] To characterize the binding site, we solved the cryo-EM structure of NVL2 with MM017. MM017 binds to a single site in the asymmetric hexamer near the D subunit. Consistent with our binding data, the mutations map near the binding site, including R403, which is mutated to tryptophan in a resistant clone and predicted to prevent binding of MM017 or related analogs. The cryo-EM structure of NVL2 with MM017 provides further evidence of target identification and also a tool for optimizing a bioavailable compound.
To assess whether MM017 binds directly to NVL in cells, we used a MM017 crosslinker (Probe compound (2), Table A) that is UV-activatable and contains an alkyne that can be coupled to biotin for affinity purification. […]

HCT116 NVL^R403W cells = experiment: Cell viability counter-screen in compound-resistant HCT116 NVL^R403W cells; assay type: cell-based, human; conditions: NVL^P307T, NVL^R403W or NVL^H304R cells
Method: Design and synthesis of benzothiazepine-based NVL inhibitors. […] Analogs were evaluated against the colorectal cancer cell line HCT116, and counter-screened against a compound resistant NVL2^R403W clone. Cytotoxicity in wild-type HCT116 was determined. […] Initial SAR focused on exploring the replacement of the furan ring of initial dibenzothiazepinone hit MM017. We first explored a wide variety of mono- and di-substituted phenyl rings, including a broad spectrum of functionality (F, Cl, alkyl, alkoxy, fluoroalkoxy, CN, formamide, S(O) Me, carboxyl, . . . ). […]
as §2, with “72 hours after transfection, cells were selected by MM017 treatment.” left out
Cell viability assay: In 96-well assay plates (Corning #2903), 2,000 cells were plated per well in 100 μL of medium and allowed to adhere overnight. […] Luminescence (CellTiter-Glo) was recorded using a Synergy 2 microplate reader (BioTek). […]

[2] = system: p53 KO and p21 KO HCT116 cells; experiment: Growth competition of p53 or p21 knockout versus control HCT116 cells; assay type: cell-based, human
Source text: To better understand how inhibition of NVL by MM017 leads to cell death, we performed a genome wide pooled CRISPR/Cas9 knockout screen in HCT116 cells using a library of guide RNAs targeting 19,114 genes. Cells were pulsed intermittently with vehicle or MM017 over 21 days, at which point MM017 treated cells had undergone 9.79 fewer population doublings. Massively parallel sequencing of PCR products amplified from genomic DNA was used to determine relative levels of sgRNA sequences to infer the relative impact of each gene on compound sensitivity. […] To confirm whether p53 and p21 are required for the anti-proliferative activity of MM017, we performed a growth competition experiment between cells expressing ZsGreen with either p53 or p21 knockout (KO) and control cells expressing mCherry. Without treatment, the ratio between green and red cells was unchanged over time.

[3] = system: HCT116 control and p53 KO cells; experiment: Cell death by loss in membrane permeability, HCT116 control and p53 KO cells; assay type: cell-based, human; conditions: five-day treatment
NVL-AID = experiment: Viability of NVL^AID/AID cells on auxin-induced NVL degradation; assay type: cell-based, human
Source text: To study the effect of NVL depletion, we engineered a C-terminal FLAG-epitope auxin-inducible degron (AID) tag into NVL in cells that also express the plant E3 ligase TIR1.

902 cancer cell lines = experiment: PRISM screen across 902 cancer cell lines; assay type: cell-based; conditions: 902 cancer cell lines, 1,215 compounds
Source text: as §1
To nominate genetic predictors of MM017 sensitivity across different cancer types, we performed a PRISM screen across 902 cancer cell lines with known genotypes (31). […] These findings are consistent with the isogenic CRISPR screen and indicate that p53 is a critical effector for MM017 in cancer cells from multiple lineages and with differing genotypes.

Structure (SMILES): O=C1[O][Pt]2([NH][C@@H]3CCCC[C@H]3[NH]2)[O]C1=O [oxaliplatin, reference compound]
p53 levels in parental HCT116 cells (p53 and p21): dose-dependent increase in the levels of p53
serine 15 phosphorylated p53 [1]: dose-dependent increase in phosphorylated p53

Structure (SMILES): CN[C@@H]1C[C@H]2O[C@@](C)([C@@H]1OC)n1c3ccccc3c3c4c(c5c6ccccc6n2c5c31)C(=O)NC4 [Staurosporine, reference compound]
cleaved caspase-3 (cleaved caspase-3): robust caspase activation in both control and p53 KO cells

IC50 (HCT116 cells): 470 nM
Structure (SMILES): C#CCOCCN1C(=O)c2ccccc2Sc2cc(NC(=O)c3ccc(N=[N+]=[N-])cc3)ccc21 [Probe compound 2, 4-Azido-N-(11-oxo-10-(2-(prop-2-yn-1-yloxy)ethyl)-10, 11-dihydro-dibenzo[b,f][1,4]thiazepin-7-yl)benzamide]
resistance of NVL^P307T cells (HCT116 NVL^P307T cells): comparatively resistant
NVL crosslinked to / purified with probe (NVL): only detected in conditions that included both the MM017-probe and UV light

Structure (SMILES): CC(=O)O[C@H]1C(=O)[C@@]2(C)[C@H]([C@H](OC(=O)c3ccccc3)[C@]3(O)C[C@H](OC(=O)[C@H](O)[C@@H](NC(=O)c4ccccc4)c4ccccc4)C(C)=C1C3(C)C)[C@]1(OC(C)=O)CO[C@@H]1C[C@@H]2O [paclitaxel, reference compound]
sensitivity of NVL mutant cells compared to NVL^WT (HCT116 NVL^R403W cells): equally sensitive
enrichment of p53 or p21 KO cells in growth competition [2]: no competitive advantage
cell death in p53 KO versus control cells [3]: cell death irrespective of p53

Structure (SMILES): O=C(O)Cc1c[nH]c2ccc(-c3ccccc3)cc12 [Ph-IAA, 5-Phenyl-indole-3-acetic acid]
viability of NVL^AID/AID cells (NVL-AID): reduced viability in a dose-dependent manner

Structure (SMILES): CCCCCCNC(=O)n1cc(F)c(=O)[nH]c1=O [carmofur]
correlation (r) of selectivity with MM017 (902 cancer cell lines): 0.53
